The target in data set [1] is T1, iNOS (Homo sapiens, UniProt P35228).
T1 construct: expressed in transfected cells
In words: iNOS activity in AtT-20 cells stably expressing iNOS, transiently transfected with Kalirin-7, Kalirin domain or section plasmids. The data set is classed as cell-based, mouse. On the procedure:
Assays for iNOS and NOS-The hippocampal and cerebellar specimens and the transfected cells were homogenized in 50 mM Tris HCl (pH 7.4), 1 mM EDTA, 0.1 mM tetrahydrobiopterin, 2 mM dithiothreitol, 10% (v/v) glycerol, aprotinin (25 μg/ml), leupeptin (25 μg/ml), 100 μM PMSF, 10 μM FMN, and 10 μM FAD. […] The collective activity of NOS (including eNOS, nNOS and iNOS) was determined in an identical fashion to iNOS activity, but in the presence of 1.25 mM Ca^2+. Cell culture and transfection-AtT-20 cells (ATCC# CCL-89), SH-SY5Y cells (ATCC# CRL-2266), C6 cells (ATCC# CCL-107) and Neuro-2A cells (ATCC # CCL-131) were cultured according to the supplier's instructions. Each cell line was grown in a 25 cm^2 flask, stably transfected with pcDNA4 vector carrying […]-7 or pcDNA3 carrying iNOS, using SuperFect transfection reagents (Qiagen) following the manufacture's instructions. Stable cell lines were selected using 0.5 mg/ml of G-418 for pcDNA3 or 0.12 μg/ml of zeocin for pcDNA4. To induce the iNOS activity, cell lines were transfected with iNOS in pcDNA3 or stimulated with 3 μg/ml of lipopolysaccharides (LPS) for 12-16 h (27) or 10 μM A β1-42 peptide for 18 h. Two different approaches of double transfection with […]-7 and iNOS were used to determine the effects of […]-7 on iNOS. The cell line stably expressing […]-7 was transiently transfected with iNOS, and conversely, the cell line stably expressing iNOS was transiently transfected with increasing amounts of pcDNA4 carrying […]-7 or […] domains.

For data set [2], the system named is iNOS. As to the kind of experiment: iNOS activity in cell lines stably transfected with Kalirin-7, iNOS induced by iNOS plasmid, LPS or LPS plus Aβ1-42. The class given is cell-based. The conditions noted are these: for iNOS activity: AtT20, SH-SY5Y, Neuro2A and C6 cell lines, iNOS raised by iNOS plasmid, LPS, or LPS plus Aβ1-42, Canavanine or L-NAME 10 mM; for Aβ1-42-augmented iNOS activity: LPS plus Aβ1-42 treated cell lines. On the procedure: Assays for iNOS and NOS—The hippocampal and cerebellar specimens and the transfected cells were homogenized in 50 mM Tris HCl (pH 7.4), 1 mM EDTA, 0.1 mM tetrahydrobiopterin, 2 mM dithiothreitol, 10% (v/v) glycerol, aprotinin (25 μg/ml), leupeptin (25 μg/ml), 100 μM PMSF, 10 μM FMN, and 10 μM FAD. The homogenates were centrifuged at 2,000×g for 15 min, and the supernatants were assayed for iNOS. iNOS was also assayed in the presence of 10 mM Canavanine (Sigma) or L-NAME (Sigma). The collective activity of NOS (including eNOS, nNOS and iNOS) was determined in an identical fashion to iNOS activity, but in the presence of 1.25 mM Ca^2+.
Preparation of Aβ1-42 peptide—One mM of A β1-42 (Biosource) was prepared in a capped vial at 37° C. for 5 days, and stored at −20° C. The frozen stock solution was diluted and used at the final concentration of 10 μM.
Cell culture and transfection—AtT-20 cells (ATCC# CCL-89), SH-SY5Y cells (ATCC# CRL-2266), C6 cells (ATCC# CCL-107) and Neuro-2A cells (ATCC # CCL-131) were cultured according to the supplier's instructions. Each cell line was grown in a 25 cm^2 flask, stably transfected with pcDNA4 vector carrying Kalirin-7 or pcDNA3 carrying iNOS, using SuperFect transfection reagents (Qiagen) following the manufacture's instructions. Stable cell lines were selected using 0.5 mg/ml of G-418 for pcDNA3 or 0.12 μg/ml of zeocin for pcDNA4.
To induce the iNOS activity, cell lines were transfected with iNOS in pcDNA3 or stimulated with 3 μg/ml of lipopolysaccharides (LPS) for 12-16 h (27) or 10 μM A β1-42 peptide for 18 h. Two different approaches of double transfection with Kalirin-7 and iNOS were used to determine the effects of Kalirin-7 on iNOS. The cell line stably expressing Kalirin-7 was transiently transfected with iNOS, and conversely, the cell line stably expressing iNOS was transiently transfected with increasing amounts of pcDNA4 carrying Kalirin-7 or Kalirin domains.

Data set [3] deals with T1, iNOS. As to the kind of experiment: Co-immunoprecipitation of iNOS with Kalirin-7 by anti-Kalirin in co-transfected AtT-20 cells. The class given is binding. The settings on record: increasing amounts of Kalirin-7 plasmid. The method, then:
Immunoblot and immunoprecipitation—Proteins were extracted. Brain samples were directly solubilized in 10 volume of lysis buffer (50 mM Tris HCl at pH 7.5, 120 mM NaCl, 5 mM EDTA, 1% Nonidet P-40 (0.3 mg/ml), 8 μg/ml aprotinin, 2 μg/ml pepstatin A, 2 μg/ml leupeptin, 1 mM Na3VO4, 50 mM NaF and 0.2% of SDS) using Omni 2000 homogenizer (Omni International Inc). The solubilized samples were centrifuged at 15,000×g for 10 min, the supernatants were saved, and protein concentration was measured by the Bradford method. Cultured cells were suspended in another lysis buffer consisting of 100 mM Tris HCl (pH7.5), 150 mM NaCl, 2 mM EDTA, 0.5% of Triton X-100, 1 mM PMSF, 4 μg/ml aprotinin, 1 μg/ml pepstatin A, 1 μg/ml leupeptin, 1 mM Na3VO4, 50 mM NaF and 0.2% of SDS), and processed.
An equal protein-amount of solubilized supernatants was resolved by SDS-PAGE and blotted onto polyvinylidene difluoride membrane. The membranes were incubated for 1 h in blocking solution containing 3% bovine serum albumin. The membranes were incubated for 1 h with primary antibodies diluted 1:500 in Tris-buffered saline containing 0.1% Tween 20. After washing, membranes were incubated for 1 h in 1:10,000 dilution of secondary antibodies coupled to horseradish peroxidase. […] Blots were scanned, and the band intensity was digitized and quantified using Molecular Dynamics Image Quant 5.1. […]

Data set [4] concerns AtT-20 cells stably expressing iNOS. As to the kind of experiment: Renilla luciferase assay as transfection reference for toxic effect of plasmid DNA. The class given is cell-based, mouse. The settings on record: increasing plasmid amounts co-transfected with constant pRL-TK vector. The method, then: To test the putative toxic effect of high concentrations of plasmid DNA, up to 2.5 μg, the Renilla luciferase assay (Promega) was used as a transfection reference. The AtT-20 cells stably expressing iNOS were transiently transfected with a constant amount of the pRL-TK vector (Promega) carrying Renilla luciferase and increasing amounts of the Kalirin plasmid. The co-transfected cells were assayed for iNOS and luciferase following the manufacturer's instructions.

Here are results for six molecules from patent US7867978B2, “Methods and compositions for treating neurological disorders” (The University of Kentucky Research Foundation, priority 2007, dated 2011).

“Also recorded” adds a separate entry of the source. Ends that are not written are not given here.

T1 sequence (P35228 whole entry, species assumed): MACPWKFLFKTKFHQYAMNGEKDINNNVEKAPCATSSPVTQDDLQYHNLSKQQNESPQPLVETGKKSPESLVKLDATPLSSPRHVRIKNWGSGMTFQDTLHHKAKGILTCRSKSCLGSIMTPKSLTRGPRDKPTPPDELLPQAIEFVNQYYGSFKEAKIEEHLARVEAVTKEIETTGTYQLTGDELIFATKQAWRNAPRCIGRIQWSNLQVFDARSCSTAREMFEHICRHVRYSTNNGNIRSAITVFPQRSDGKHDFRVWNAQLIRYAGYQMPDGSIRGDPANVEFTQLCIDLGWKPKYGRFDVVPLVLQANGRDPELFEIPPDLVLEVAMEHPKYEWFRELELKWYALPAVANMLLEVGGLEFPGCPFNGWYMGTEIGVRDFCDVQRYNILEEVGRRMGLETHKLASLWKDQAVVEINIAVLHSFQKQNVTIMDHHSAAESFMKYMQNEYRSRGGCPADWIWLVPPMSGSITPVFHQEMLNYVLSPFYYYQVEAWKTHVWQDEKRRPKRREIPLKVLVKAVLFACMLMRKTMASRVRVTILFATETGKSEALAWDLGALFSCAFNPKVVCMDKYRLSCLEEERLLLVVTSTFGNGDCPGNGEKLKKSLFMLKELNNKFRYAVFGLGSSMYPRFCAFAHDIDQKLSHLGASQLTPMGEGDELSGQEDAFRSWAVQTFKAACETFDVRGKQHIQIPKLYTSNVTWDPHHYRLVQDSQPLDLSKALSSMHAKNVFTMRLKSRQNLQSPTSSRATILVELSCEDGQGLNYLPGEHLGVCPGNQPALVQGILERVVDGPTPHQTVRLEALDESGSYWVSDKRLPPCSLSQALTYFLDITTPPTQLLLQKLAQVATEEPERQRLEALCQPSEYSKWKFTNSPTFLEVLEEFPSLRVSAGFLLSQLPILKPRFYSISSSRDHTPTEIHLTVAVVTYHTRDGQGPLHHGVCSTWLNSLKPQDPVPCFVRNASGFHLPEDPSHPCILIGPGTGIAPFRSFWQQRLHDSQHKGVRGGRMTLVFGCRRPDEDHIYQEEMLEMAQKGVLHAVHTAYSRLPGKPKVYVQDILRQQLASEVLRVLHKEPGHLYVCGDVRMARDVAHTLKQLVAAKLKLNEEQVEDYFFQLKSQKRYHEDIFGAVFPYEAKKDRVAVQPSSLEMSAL

Take “D2: Kalirin domain consisting of the 354 amino acid V506-Q860 sequence of SEQ ID NO:2, expressed from pcDNA4”: the iNOS activity entry with iNOS [1] (transient transfection with pcDNA4 carrying individual Kalirin-7 domains) is listed as “attenuated; also recorded: most notably attenuated”.

In the case of “KAARHLEVRIQDFVRRVEQRKLLLDMSVSFHTH (also: Flag epitope tag; listed as Homo sapiens) [section # 8]”, the “suppression of iNOS versus plasmid concentration” value in the data set with iNOS [1] (increasing amounts of Kalirin section 8 plasmid) is given as “dependent on the concentration”. For the same molecule, the iNOS suppression entry with iNOS [1] (transient transfection with pcDNA4 carrying individual 33 amino acid sections, compared with D2 and wild type Kalirin 7) is given as “suppressed most effectively”.

For the molecule “Kalirin-7: cytoplasmic protein of >1,660 amino acids (SEQ ID NO:2), expressed from pcDNA4 carrying the Kalirin-7 cDNA”, in the data set on iNOS [2], the iNOS activity entry is listed as “suppressed to basal levels” and the “Aβ1-42-augmented iNOS activity” value is listed as “attenuated”. In the data set with iNOS [1] (increasing amounts of pcDNA4 Kalirin-7 vector), the iNOS activity entry is listed as “decreased”. Besides, the “iNOS co-immunoprecipitated by anti-Kalirin” value with iNOS [3] was “increasing concentrations of iNOS were co-immunoprecipitated”. Moreover, the “synthesis and activity of Renilla luciferase (putative toxic effect of plasmid)” value in data set [4] is reported as “did not impair”.

Regarding `COC(=O)[C@@H](N)CCCNC(=N)N[N+](=O)[O-]` [L-NAME], in the data set with iNOS [2], the iNOS activity entry is on record as “suppressed to basal levels” and the “Aβ1-42-augmented iNOS activity” value was “attenuated”.

Turning to `N=C(N)NOCC[C@H](N)C(=O)O` [Canavanine], in the data set on iNOS [2], the iNOS activity entry is “suppressed to basal levels” and the “Aβ1-42-augmented iNOS activity” value is on record as “attenuated”.

In the case of “Aβ1-42: amyloidogenic peptide Aβ1-42 (Biosource), used at 10 μM”, in the data set on iNOS [2] (LPS plus 10 μM Aβ1-42, stable cell lines), the “iNOS activity induced by LPS treatment” value was “augments iNOS activity”.
